Measured values reported in patent US20090011410A1, “METHOD FOR TAILORING ADMINISTRATION OF DRUGS BY QUANTITATION OF MRNA” (priority 2004, published 2009).

How the values were obtained:
p21 mRNA [1] = assay: drug-induced p21 mRNA expression in whole blood of leukemia and lymphoma patients; format: cell-based, human
p21 mRNA [2] = assay: drug-induced p21 mRNA expression in whole blood of healthy adults; format: cell-based, human; conditions: 10 or 100 μM taxol, 2 hours at 37° C., all individuals (FIG. 13)
Text: Blood was obtained from healthy adults and from two leukemic non-Hodgkin's malignant lymphoma patients. U937, KG-1, and Jurkat cells were obtained from American Type Culture Collection (ATCC, Manassas, Va.), and maintained in RPMI 1640 supplemented with 10% fetal calf serum. Of these, U937 cells are a human histiocytic lymphoma cell line, KG-1 cells are a human bone marrow myelogenous leukemia cell line, and Jurkat cells are a human T-cell lymphoblast-like, leukemia derived cell line. […] For human experiments, blood aliquots were stimulated with various anti-cancer drugs at 37° C. for 2 hours, then both p21 and BAX mRNA were measured. The anti-cancer drugs used in this study were clinical drugs, and the concentration of each drug was adjusted to typical blood levels 3-6 hours after intravenous administration.
(§1) The mRNA and cDNA were prepared from whole blood. In brief, home-made 96-well filterplates were placed over collection plates, and 150 μl 5 mM Tris, pH 7.4, was applied. Following centrifugation at 120×g for 1 min at 4° C., 50 μl of blood samples were applied to each well and immediately centrifuged at 120×g for 2 min at 4° C., followed by washing of each well with 300 μl PBS once with centrifugation at 2000×g for 5 min at 4° C. Then, 60 μl stock lysis buffer, containing for example 0.5% N-Lauroylsarcosine, 4×SSC, 10 mM Tris HCl, pH 7.4, 1 mM EDTA, 0.1% IGEPAL CA-630, and 1.791 M guanidine thiocyanate, supplemented with 1% 2-mercaptoethanol (Bio Rad, Hercules, Calif., USA), 0.5 mg/ml proteinase K (Pierce, Rockford, Ill., USA), 0.1 mg/ml salmon sperm DNA (5 Prime Eppendorf/Brinkmann, Westbury, N.Y., USA), 0.1 mg/ml E. coli tRNA (Sigma), a cocktail of 10 mM each of the specific reverse primers shown in Table 1, and standard RNA34 oligonucleotides, were applied to the filterplates, followed by incubation at 37° C. for 10 min. The filterplates were then placed over oligo(dT)-immobilized microplates (GenePlate, RNAture), and centrifuged at 2000×g for 5 min at 4° C. Following overnight storage at 4° C., the microplates were washed with 100 μl plain lysis buffer 3 times, followed by 150 μl of wash buffer (0.5 M NaCl, 10 mM Tris, pH 7.4, 1 mM EDTA) 3 times at 4° C. The cDNA was directly synthesized in each well by adding 30 μl buffer containing 1× RT-butter, 1.25 mM each of dNTP, 4 units rRNasin, and 80 units of MMLV reverse transcriptase (Promega) (without primers), and incubation at 37° C. for 2 hours. The specific primer-primed cDNA existed in solution, and oligo(dT)-primed cDNA stayed immobilized in the microplate. For TaqMan PCR (FIGS. 1, 3, 4), the resultant 4 μl cDNA solution was directly transferred to 384-well PCR plates, to which 5 μl of TaqMan universal master mix (ABI) and 1 μl oligonucleotide cocktail (15 μM each of forward and reverse primer, and 3-6 μM TaqMan probe) were applied, and PCR was conducted in PRISM 7900HT (ABI), with one cycle of 95° C. for 10 min followed by 45 cycles of 95° C. for 30 sec, 55° C. for 30 sec, and 60° C. for 1 min. For SYBR Green PCR (see FIG. 6), cDNA was diluted 3-4 fold in water, and 4 μl cDNA solution was directly transferred to 384-well PCR plates, to which 5 μl of a master mix (BioRad, Hercules, Calif.) and 1 μl of oligonucleotide cocktail (15 μM each of forward and reverse primer) were applied, and PCR was conducted in PRISM 7900HT (ABI), with one cycle of 95° C. for 10 min followed by 45 cycles of 95° C. for 30 sec and 60° C. for 1 min. Each gene was amplified in separate wells. The Ct was determined by analytical software (SDS, ABI).
(§2) In 8-well strip microtubes, 1.4 μl of 50× concentrations of drugs or controls (phosphate buffered saline (PBS) or DMSO) were added, and stored at −20° C. until use. […] Seventy μl of fresh heparinized whole blood was added into each well in triplicate, and incubated at 37° C. for 2-8 hours with the cap closed. For radiation treatment, blood was stimulated at designated doses using cesium-137.

PUMA mRNA [3] = assay: drug-induced PUMA mRNA expression in whole blood of healthy adults; format: cell-based, human; conditions: 10 or 100 μM taxol, 2 hours at 37° C., all individuals (FIG. 13)
Experimental: as §2, with “cesium-137. After each treatment, 50 μl of whole blood was transferred to filterplates as described below.” for “cesium-137.”
as §1, with “1×RT-buffer,” for “1× RT-butter,”, “ABI). Although 1×RT buffer was used as a negative control, none of the primer pairs produced non-specific primer-dimers under these experimental conditions. For PUMA in FIG. 8, immobilized cDNA on the oligo(dT)-immobilized microplates was directly amplified in an iCycler (BioRad).” for “ABI).”
Quantitation of various mRNAs was conducted using the following method. Triplicate aliquots of 50 μl each of heparinized whole blood was applied to 96-well filterplates to trap leukocytes. The filterplates were placed over collection plates, and 150 μl 5 mM Tris, pH 7.4, was applied. […]

PUMA mRNA [4] = assay: drug-induced PUMA mRNA expression in whole blood of leukemia and lymphoma patients; format: cell-based, human; conditions: 2 hours at 37° C.; for PUMA response: NHL patient, drug concentrations (FIG. 8C)
IL-2 mRNA = assay: PHA-P-induced leukocyte IL-2 mRNA expression in heparinized whole blood of healthy adults; format: cell-based, human
Text: Blood was obtained from healthy adults and from patients with psoriasis (4), aplastic anemia (1), nephrotic syndrome (1), and bone marrow transplantation (2). At the time of blood draw, one EDTA tube was sent to clinical laboratory for the measurement of leukocyte counts, and one heparin tube was stored on ice. […] Fifty μL each of blood sample was applied to three different wells of filterplates (triplicate from the beginning), and leukocytes were collected on the membrane by centrifugation at 800×g for 2 min. After washing each well with 300 μL phosphate buffered saline (PBS) once by centrifugation, the lysis buffer described above was applied to each well and incubated at 37° C. for 10 min to release mRNA from trapped leukocytes. The lysate was then transferred to oligo-(dT)-immobilized microplates (GenePlate, RNAture, Irvine, Calif.) by centrifugation at 2000× g for 5 min, and incubated at 4° C. overnight for hybridization. After washing each well with 100 μL lysis buffer 3 times followed by 150 μL wash buffer (10 mM Tris, pH 7.4, 1 mM EDTA, pH 8.0, and 0.5 M NaCl) 3 times, cDNA was synthesized in each well by adding buffer, nucleotides, a cocktail of specific primers, RNasin, and MMLV reverse transcriptase (Promega, Madison, Wis.), and incubated at 37° C. for 2 hours. […]

lymphocyte blastogenesis = conditions: induction of lymphocyte blastogenesis, activity declined at higher doses; cited from earlier work
BAX mRNA = assay: drug-induced BAX mRNA expression in whole blood of leukemia and lymphoma patients; format: cell-based, human; conditions: drug concentrations (FIG. 3)
Experimental: The mRNA and cDNA were prepared from whole blood. In brief, home-made 96-well filterplates were placed over collection plates, and 150 μl 5 mM Tris, pH 7.4, was applied. Following centrifugation at 120×g for 1 min at 4° C., 50 μl of blood samples were applied to each well and immediately centrifuged at 120×g for 2 min at 4° C., followed by washing of each well with 300 μl PBS once with centrifugation at 2000×g for 5 min at 4° C. Then, 60 μl stock lysis buffer, containing for example 0.5% N-Lauroylsarcosine, 4×SSC, 10 mM Tris HCl, pH 7.4, 1 mM EDTA, 0.1% IGEPAL CA-630, and 1.791 M guanidine thiocyanate, supplemented with 1% 2-mercaptoethanol (Bio Rad, Hercules, Calif., USA), 0.5 mg/ml proteinase K (Pierce, Rockford, Ill., USA), 0.1 mg/ml salmon sperm DNA (5 Prime Eppendorf/Brinkmann, Westbury, N.Y., USA), 0.1 mg/ml E. coli tRNA (Sigma), a cocktail of 10 mM each of the specific reverse primers shown in Table 1, and standard RNA34 oligonucleotides, were applied to the filterplates, followed by incubation at 37° C. for 10 min. The filterplates were then placed over oligo(dT)-immobilized microplates (GenePlate, RNAture), and centrifuged at 2000×g for 5 min at 4° C. Following overnight storage at 4° C., the microplates were washed with 100 μl plain lysis buffer 3 times, followed by 150 μl of wash buffer (0.5 M NaCl, 10 mM Tris, pH 7.4, 1 mM EDTA) 3 times at 4° C. The cDNA was directly synthesized in each well by adding 30 μl buffer containing 1× RT-butter, 1.25 mM each of dNTP, 4 units rRNasin, and 80 units of MMLV reverse transcriptase (Promega) (without primers), and incubation at 37° C. for 2 hours. The specific primer-primed cDNA existed in solution, and oligo(dT)-primed cDNA stayed immobilized in the microplate. For TaqMan PCR (FIGS. 1, 3, 4), the resultant 4 μl cDNA solution was directly transferred to 384-well PCR plates, to which 5 μl of TaqMan universal master mix (ABI) and 1 μl oligonucleotide cocktail (15 μM each of forward and reverse primer, and 3-6 μM TaqMan probe) were applied, and PCR was conducted in PRISM 7900HT (ABI), with one cycle of 95° C. for 10 min followed by 45 cycles of 95° C. for 30 sec, 55° C. for 30 sec, and 60° C. for 1 min. […] The Ct was determined by analytical software (SDS, ABI).

[5] = leukemic lymphoma patient 2, 2 hours at 37° C., drug concentrations (FIG. 3)
[6] = AML patient, drug concentrations of b94 (FIG. 8B)
[7] = leukemic lymphoma patient 1, 2 hours at 37° C., drug concentrations (FIG. 3)
[8] = leukemic lymphoma patient 1, 2 hours at 37° C.

O=P1(N(CCCl)CCCl)NCCCO1 (centres unmarked) [Endoxan, cyclophosphamide]
p21 mRNA induction (p21 mRNA [1]): induced

CC(=O)O[C@H]1C(=O)[C@@]2(C)[C@H]([C@H](OC(=O)c3ccccc3)[C@]3(O)C[C@H](OC(=O)[C@H](O)[C@@H](NC(=O)c4ccccc4)c4ccccc4)C(C)=C1C3(C)C)[C@]1(OC(C)=O)CO[C@@H]1C[C@@H]2O [taxol]
p21 mRNA induction (p21 mRNA [2]): failed to induce
PUMA mRNA induction (PUMA mRNA [3]): failed to induce

Nc1nc(F)nc2c1ncn2[C@@H]1O[C@H](CO)[C@@H](O)[C@@H]1O [Fludara, fludarabine]
p21 mRNA induction (p21 mRNA [1]; [5]): significant p21 mRNA induction
PUMA induction (PUMA mRNA [4]; [6]): huge induction

phytohemagglutinin-P [PHA-P]
PHA-P concentration from which IL-2 mRNA increased (IL-2 mRNA; heparinized whole blood (FIG. 18)): ≥ 5 µg/mL
PHA-P concentration over which IL-2 mRNA reached a plateau (IL-2 mRNA; heparinized whole blood (FIG. 18, 19)): over 40 μg/mL
PHA-P concentration of maximal action (lymphocyte blastogenesis): 10 to 20 µg/mL

[NH2][Pt]1([NH2])[O]C(=O)C2(CCC2)C(=O)[O]1 [Paraplatin, carboplatin]
p21 mRNA induction (p21 mRNA [1]; [7]): significant induction
BAX mRNA induction (BAX mRNA; [8]): significant induction

O=C1c2c(O)ccc(O)c2C(=O)c2c(NCCNCCO)ccc(NCCNCCO)c21 [MIT, mitoxantrone]
BAX mRNA induction (BAX mRNA; leukemic lymphoma patient 2, 2 hours at 37° C.): BAX mRNA induction
PUMA induction (PUMA mRNA [4]; [6]): huge induction
PUMA induction (PUMA mRNA [4]; CLL patient, drug concentrations of b94 (FIG. 8A)): induced
PUMA response (PUMA mRNA [4]): strong PUMA response

CC[C@]1(O)C[C@@H]2CN(CCc3c([nH]c4ccccc34)[C@@](C(=O)OC)(c3cc4c(cc3OC)N(C)[C@H]3[C@@](O)(C(=O)OC)[C@H](OC(C)=O)[C@]5(CC)C=CCN6CC[C@]43[C@@H]65)C2)C1 [VLB, vinblastine]
p21 induction (p21 mRNA [1]; AML patient, 2 hours at 37° C., drug concentrations of b94 (FIG. 8B)): significant p21 induction

COc1cccc2c1C(=O)c1c(O)c3c(c(O)c1C2=O)C[C@@](O)(C(=O)CO)C[C@@H]3O[C@H]1C[C@H](N)[C@H](O)[C@H](C)O1 [Adriacin, doxorubicin]
p21 mRNA induction (p21 mRNA [1]; [5]): significant p21 mRNA induction

COc1cccc2c1C(=O)c1c(O)c3c(c(O)c1C2=O)C[C@@](O)(C(=O)CO)C[C@@H]3O[C@H]1C[C@H](N)[C@H](O[C@@H]2CCCCO2)[C@H](C)O1 [THP, pirarubicin]
p21 mRNA induction (p21 mRNA [1]; [7]): significant induction
BAX mRNA induction (BAX mRNA; [8]): significant induction
PUMA induction (PUMA mRNA [4]; [6]): huge induction
PUMA response (PUMA mRNA [4]): strong PUMA response
